Patent US20260138961A1, “MODULATORS OF MITOCHONDRIAL DNA REPLICATION” (Pretzel Therapeutics, Inc., priority 2022, published 2026)

The compounds below were run against T1, POLγA:A467T (Homo sapiens, UniProt P54098, A467T) (assay: DNA polymerization assay, POLγA:A467T mutant). Conditions: stimulation of polymerase activity, primed M13mp18 ssDNA, 37° C. 2 hours; read-out: A467T AC50.
T1 sequence (P54098 1-1239 A467T): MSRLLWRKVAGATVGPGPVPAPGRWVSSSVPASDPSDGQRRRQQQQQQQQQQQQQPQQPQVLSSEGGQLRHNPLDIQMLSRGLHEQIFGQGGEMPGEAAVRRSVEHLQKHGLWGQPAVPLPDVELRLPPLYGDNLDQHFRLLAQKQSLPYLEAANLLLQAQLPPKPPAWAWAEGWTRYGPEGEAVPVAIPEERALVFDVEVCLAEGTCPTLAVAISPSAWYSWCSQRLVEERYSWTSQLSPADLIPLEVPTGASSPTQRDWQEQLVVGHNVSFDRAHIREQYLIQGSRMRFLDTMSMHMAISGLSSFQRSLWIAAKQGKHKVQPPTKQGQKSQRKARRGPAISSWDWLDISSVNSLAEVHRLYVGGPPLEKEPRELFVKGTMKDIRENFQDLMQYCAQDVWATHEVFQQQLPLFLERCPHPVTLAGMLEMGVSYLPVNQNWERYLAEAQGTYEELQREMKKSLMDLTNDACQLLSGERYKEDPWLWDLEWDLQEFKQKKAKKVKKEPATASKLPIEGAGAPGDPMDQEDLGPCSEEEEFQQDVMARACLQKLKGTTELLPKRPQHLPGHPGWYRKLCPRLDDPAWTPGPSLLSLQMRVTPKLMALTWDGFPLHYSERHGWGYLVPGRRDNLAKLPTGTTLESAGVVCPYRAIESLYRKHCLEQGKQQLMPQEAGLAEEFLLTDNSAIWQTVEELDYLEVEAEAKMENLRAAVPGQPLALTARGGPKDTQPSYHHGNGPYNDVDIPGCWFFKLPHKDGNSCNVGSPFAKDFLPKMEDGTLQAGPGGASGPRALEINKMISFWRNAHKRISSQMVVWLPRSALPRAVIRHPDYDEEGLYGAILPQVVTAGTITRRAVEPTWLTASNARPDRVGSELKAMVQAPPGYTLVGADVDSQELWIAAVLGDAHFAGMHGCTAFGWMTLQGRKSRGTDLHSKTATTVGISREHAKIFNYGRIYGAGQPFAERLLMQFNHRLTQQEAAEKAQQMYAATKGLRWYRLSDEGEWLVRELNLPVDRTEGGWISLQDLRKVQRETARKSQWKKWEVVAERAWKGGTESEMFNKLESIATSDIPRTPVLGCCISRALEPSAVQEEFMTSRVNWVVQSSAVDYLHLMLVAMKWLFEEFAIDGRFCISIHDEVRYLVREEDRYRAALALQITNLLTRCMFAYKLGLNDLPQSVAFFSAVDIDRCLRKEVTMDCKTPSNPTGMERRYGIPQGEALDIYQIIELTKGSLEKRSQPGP
T1 sequence (Q9UHN1 1-485 partner): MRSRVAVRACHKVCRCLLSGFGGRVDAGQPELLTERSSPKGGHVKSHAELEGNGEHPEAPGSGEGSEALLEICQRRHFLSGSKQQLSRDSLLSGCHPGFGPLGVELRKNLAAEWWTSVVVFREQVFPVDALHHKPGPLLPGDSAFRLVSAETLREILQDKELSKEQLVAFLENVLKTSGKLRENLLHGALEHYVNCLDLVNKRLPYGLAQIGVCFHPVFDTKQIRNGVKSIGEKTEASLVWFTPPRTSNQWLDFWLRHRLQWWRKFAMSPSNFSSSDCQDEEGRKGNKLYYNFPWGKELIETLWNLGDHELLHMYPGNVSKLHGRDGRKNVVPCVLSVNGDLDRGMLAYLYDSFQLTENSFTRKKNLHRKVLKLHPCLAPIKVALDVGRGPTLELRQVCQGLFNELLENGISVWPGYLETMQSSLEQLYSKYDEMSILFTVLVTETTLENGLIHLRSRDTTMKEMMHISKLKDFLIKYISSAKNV
Format: biochemical

AC50	SMILES
> 100 µM	Cc1cc(S(=O)(=O)Nc2cn(Cc3ccccc3)cn2)c(C)cc1Cl [Example 168, N-(1-benzyl-1H-imidazol-4-yl)-4-chloro-2,5-dimethylbenzenesulfonamide]
> 100 µM	Cc1cc(S(=O)(=O)Nc2cn(-c3ccccc3)cn2)c(C)cc1Cl [Example 169, 4-chloro-2,5-dimethyl-N-(1-phenyl-1H-imidazol-4-yl)benzenesulfonamide]
> 10 µM	Cc1cc(S(=O)(=O)Nc2cn(C)c(-c3ccccc3)n2)c(C)cc1Cl [Example 170, 4-chloro-2,5-dimethyl-N-(1-methyl-2-phenyl-1H-imidazol-4-yl)benzenesulfonamide]
> 10 µM	Cc1cc(S(=O)(=O)Nc2cnn(-c3ccccc3)n2)c(C)cc1Cl [Example 171, 4-chloro-2,5-dimethyl-N-(2-phenyl-2H-1,2,3-triazol-4-yl)benzenesulfonamide]
> 10 µM	Cc1cc(S(=O)(=O)Nc2csc(C(=O)N(C)CC(N)=O)n2)c(C)cc1Cl [Example 172, N-(2-amino-2-oxoethyl)-4-((4-chloro-2,5-dimethylphenyl)sulfonamido)-N-methylthiazole-2-carboxamide]
2 µM	Cc1cc(S(=O)(=O)Nc2csc(-c3ccccn3)n2)c(C)cc1Cl [Example 173, 4-chloro-2,5-dimethyl-N-(2-(pyridin-2-yl)thiazol-4-yl)benzenesulfonamide]
2 µM	Cc1cc(S(=O)(=O)Nc2csc(C(=O)N3CCC[C@H]3C)n2)c(C)cc1Cl [Example 174, (R)-4-chloro-2,5-dimethyl-N-(2-(2-methylpyrrolidine-1-carbonyl)thiazol-4-yl)benzenesulfonamide]
3 µM	Cc1cc(S(=O)(=O)Nc2csc(C(=O)N3CCC[C@@H]3C)n2)c(C)cc1Cl [Example 175, (S)-4-chloro-2,5-dimethyl-N-(2-(2-methylpyrrolidine-1-carbonyl)thiazol-4-yl)benzenesulfonamide]
> 100 µM	Cc1cc(S(=O)(=O)Nc2csc(-c3ccncc3)n2)c(C)cc1Cl [Example 176, 4-chloro-2,5-dimethyl-N-(2-(pyridin-4-yl)thiazol-4-yl)benzenesulfonamide]
> 100 µM	Cc1cc(S(=O)(=O)Nc2csc(C(=O)N(CC(N)=O)C3CCCC3)n2)c(C)cc1Cl [Example 177, N-(2-amino-2-oxoethyl)-4-((4-chloro-2,5-dimethylphenyl)sulfonamido)-N-cyclopentylthiazole-2-carboxamide]
> 100 µM	Cc1cc(S(=O)(=O)Nc2csc(-n3cccn3)n2)c(C)cc1Cl [Example 178, N-(2-(1H-pyrazol-1-yl)thiazol-4-yl)-4-chloro-2,5-dimethylbenzenesulfonamide]
> 100 µM	Cc1cc(S(=O)(=O)Nc2csc(C(=O)N(CC(N)=O)C3CCCCC3)n2)c(C)cc1Cl [Example 179, N-(2-amino-2-oxoethyl)-4-((4-chloro-2,5-dimethylphenyl)sulfonamido)-N-cyclohexylthiazole-2-carboxamide]
> 10 µM	Cc1cc(S(=O)(=O)Nc2nc(-c3ccccc3)n(C)n2)c(C)cc1Cl [Example 180, 4-chloro-2,5-dimethyl-N-(1-methyl-5-phenyl-1H-1,2,4-triazol-3-yl)benzenesulfonamide]
> 10 µM	Cc1cc(S(=O)(=O)Nc2csc(-c3ccn(C)n3)n2)c(C)cc1Cl [Example 181, 4-chloro-2,5-dimethyl-N-(2-(1-methyl-1H-pyrazol-3-yl)thiazol-4-yl)benzenesulfonamide]
6 µM	Cc1cc(S(=O)(=O)Nc2csc(-c3cnn(C)c3)n2)c(C)cc1Cl [Example 183, 4-chloro-2,5-dimethyl-N-(2-(1-methyl-1H-pyrazol-4-yl)thiazol-4-yl)benzenesulfonamide]
33 µM	Cc1cc2cc(NS(=O)(=O)c3cc(C)c(Cl)cc3C)ccc2[nH]1 [Example 184, 4-chloro-2,5-dimethyl-N-(2-methyl-1H-indol-5-yl)benzenesulfonamide]
